Where two headings read alike, the source gives them in different places.
How the values were obtained:
[1] = molecular target: Maize HD1-B (Zea mays, UniProt Q9ZTP8); assay: Maize HD1-B enzyme inhibition in vitro; type: biochemical
Protocol: (§1) Maize HD2, HD1-B, and HD1-A Enzyme Inhibition in Vitro. Radioactively labelled chicken core histones were used as the enzyme substrate according to established procedures [referenced in: Mai et al., 2006]. The enzyme liberated tritiated acetic acid from the substrate, which was quantified by scintillation counting. The IC50 values are the results of triple determinations. A 50 μL sample of maize enzyme (at 30° C.) was incubated (30 min) with 10 microL of total [^3H]acetate-prelabelled chicken reticulocyte histones (2 mg/mL). The reaction was stopped by the addition of 36 microL of 1 M HCl/0.4 M acetate and 800 microL of ethyl acetate. After centrifugation (10 000 g, 5 min), an aliquot of 600 microL of the upper phase was counted for radioactivity in 3 mL of liquid scintillation cocktail. The compounds were tested at a starting concentration of 40 microM, and active substances were diluted further. TSA and SAHA were used as the reference compounds, and blank solvents were used as negative controls [Mai et al. 2006].

[2] = molecular target: Maize HD1-A (Zea mays, UniProt Q7XAX9); assay: Maize HD1-A enzyme inhibition in vitro; type: biochemical
Chain of Maize HD1-A (Q7XAX9 entry or part of it): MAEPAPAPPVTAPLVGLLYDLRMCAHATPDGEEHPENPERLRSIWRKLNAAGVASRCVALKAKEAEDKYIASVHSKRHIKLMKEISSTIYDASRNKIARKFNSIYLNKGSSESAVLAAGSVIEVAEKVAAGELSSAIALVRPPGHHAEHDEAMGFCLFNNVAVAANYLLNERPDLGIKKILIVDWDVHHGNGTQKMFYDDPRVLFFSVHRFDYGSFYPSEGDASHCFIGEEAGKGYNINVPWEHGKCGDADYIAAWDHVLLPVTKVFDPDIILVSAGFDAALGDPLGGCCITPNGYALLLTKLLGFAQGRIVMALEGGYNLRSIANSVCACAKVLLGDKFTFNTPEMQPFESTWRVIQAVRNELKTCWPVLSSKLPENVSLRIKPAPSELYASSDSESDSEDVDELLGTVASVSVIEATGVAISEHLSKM
Protocol: as §1

[3] = molecular target: mouse HDAC1 (Mus musculus, UniProt O09106); assay: Mouse HDAC1 enzyme assay; type: biochemical
Chain of mouse HDAC1 (O09106 whole entry): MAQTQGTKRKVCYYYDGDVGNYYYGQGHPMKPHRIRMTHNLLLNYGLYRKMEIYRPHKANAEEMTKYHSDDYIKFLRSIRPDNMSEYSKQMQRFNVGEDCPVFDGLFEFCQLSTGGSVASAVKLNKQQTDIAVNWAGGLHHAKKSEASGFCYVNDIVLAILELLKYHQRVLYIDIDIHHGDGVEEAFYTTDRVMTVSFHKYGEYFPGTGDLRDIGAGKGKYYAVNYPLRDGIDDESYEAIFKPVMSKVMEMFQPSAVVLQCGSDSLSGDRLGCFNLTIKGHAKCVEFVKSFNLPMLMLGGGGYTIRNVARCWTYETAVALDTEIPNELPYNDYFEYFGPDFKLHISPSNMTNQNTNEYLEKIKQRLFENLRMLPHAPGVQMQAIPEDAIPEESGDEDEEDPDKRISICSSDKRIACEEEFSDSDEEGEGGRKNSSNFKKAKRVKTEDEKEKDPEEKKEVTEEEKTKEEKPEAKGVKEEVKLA
Protocol: Mouse HDAC1 Enzyme Assay. […] HDAC activity was determined using [^3H]acetate-prelabelled chicken reticulocyte histones as the substrate. Mouse HDAC1 (50 microL) was incubated with different concentrations of compounds for 15 min on ice, and 10 μL of total [^3H]acetate-prelabelled chicken reticulocyte histones (2 mg/mL) were added, resulting in a concentration of 41 microM. The mixture was incubated at 37° C. for 1 h. The reaction was stopped by the addition of 50 microL of 1 M HCl/0.4 M acetylacetate and 1 mL ethyl acetate. After centrifugation at 10 000 g for 5 min, an aliquot of 600 microL of the upper phase was counted for radioactivity in a 3 mL liquid scintillation cocktail [Mai et al., 2006].

[4] = molecular target: IP HDAC4 (Homo sapiens, UniProt P56524); type: biochemical
Chain of IP HDAC4 (P56524 whole entry): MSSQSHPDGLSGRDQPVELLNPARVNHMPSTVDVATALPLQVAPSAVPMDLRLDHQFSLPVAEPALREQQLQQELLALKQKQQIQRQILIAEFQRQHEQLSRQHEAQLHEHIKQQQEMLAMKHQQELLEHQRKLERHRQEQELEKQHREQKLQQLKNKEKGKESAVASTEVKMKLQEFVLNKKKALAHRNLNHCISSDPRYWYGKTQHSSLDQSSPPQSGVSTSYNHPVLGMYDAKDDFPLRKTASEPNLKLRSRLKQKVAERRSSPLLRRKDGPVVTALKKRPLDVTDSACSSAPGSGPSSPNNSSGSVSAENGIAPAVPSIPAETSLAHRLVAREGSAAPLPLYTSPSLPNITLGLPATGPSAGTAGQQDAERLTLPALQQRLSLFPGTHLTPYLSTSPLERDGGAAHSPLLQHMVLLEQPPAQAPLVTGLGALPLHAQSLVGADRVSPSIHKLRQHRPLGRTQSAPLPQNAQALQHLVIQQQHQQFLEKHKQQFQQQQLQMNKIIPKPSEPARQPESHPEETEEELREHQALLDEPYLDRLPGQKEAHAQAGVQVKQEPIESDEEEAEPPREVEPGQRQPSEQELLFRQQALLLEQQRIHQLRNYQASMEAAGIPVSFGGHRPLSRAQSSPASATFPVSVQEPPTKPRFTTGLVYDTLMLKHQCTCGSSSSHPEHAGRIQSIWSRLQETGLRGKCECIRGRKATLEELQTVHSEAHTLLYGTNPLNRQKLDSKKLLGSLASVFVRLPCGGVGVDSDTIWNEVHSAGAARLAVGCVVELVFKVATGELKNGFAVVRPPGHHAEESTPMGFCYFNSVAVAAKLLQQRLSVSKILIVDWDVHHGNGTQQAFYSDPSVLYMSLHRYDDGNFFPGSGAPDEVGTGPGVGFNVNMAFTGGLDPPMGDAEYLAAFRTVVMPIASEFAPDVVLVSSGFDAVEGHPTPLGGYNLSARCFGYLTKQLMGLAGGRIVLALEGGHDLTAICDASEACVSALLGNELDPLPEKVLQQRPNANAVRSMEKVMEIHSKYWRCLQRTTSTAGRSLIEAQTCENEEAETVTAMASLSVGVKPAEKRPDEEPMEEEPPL
Protocol: (§2) Cell-Based Human HDAC1 and HDAC4 Assays. […] Then, 1000 micrograms of extracts were diluted in IP buffer up to 1 mL and pre-cleared by incubating with 20 microL of A/G plus Agarose (Santa Cruz) for 30 min to 1 h on a rocking table at 4° C. Supernatants were transferred into a new tube, and the antibodies (around 3 to 4 μg) were added and IP was allowed to proceed overnight at 4° C. on a rocking table. The antibodies used were HDAC1 (Abcam) and HDAC4 (Sigma). As the negative control, the same amount of protein extracts were immunoprecipitated with the corresponding purified IgG (Santa Cruz). On the next day, 20 microL of A/G and Agarose (Santa Cruz) were added to each IP, and incubation was continued for 2 h. The beads were recovered by brief centrifugation and washed with cold IP buffer several times. The samples were than washed twice in PBS and re-suspended in 20 microL of sterile PBS. The HDAC assay was carried out according to the supplier's instructions (Upstate). Briefly, samples immunoprecipitated with the HDAC4 and HDAC1 or with purified IgG were pooled separately to homogenise all samples. Then, 10 microL of the IP was incubated with a previously labelled ^3H-Histone H4 peptide linked with streptavidine agarose beads (Upstate). In detail, 120 000 CPM of the H4-^3H-acetyl-peptide was used for each tube and incubated in 1 HDAC buffer with 10 microL of the sample in the presence or absence of HDAC inhibitors with a final volume of 200 μL. Those samples were incubated overnight at 37° C. in slow rotation. On the next day, 50 μL of a quenching solution was added, and 100 microL of the samples were counted in duplicate after brief centrifugation in a scintillation counter.

[5] = molecular target: IP HDAC1 (Homo sapiens, UniProt Q13547); assay: Human HDAC1 assay on immunoprecipitate (IP) from U937 cells; type: biochemical
Chain of IP HDAC1 (Q13547 whole entry): as the sequence (O09106 whole entry) above, with K8R, E399D, D424E counted along it
Protocol: as §2

[6] = tested on: HDACs; assay: HDAC class selectivity (HDACs inhibited); type: biochemical; details: Class 1 selective or NS (non-selective)
[7] = tested on: HIV-1 LTR in Jurkat A1 cells; type: cell-based
[8] = tested on: HIV-1 replication in latently HIV-1 infected monocytoid U1 cells; type: cell-based
[9] = tested on: HIV-1 replication in latently HIV-1 infected lymphocytic ACH-2 cells; type: cell-based; details: for Induction of HIV-1 replication by the agent alone, ACH-2 cells: data not shown
[10] = tested on: latent HIV-1; details: cited from earlier work
[11] = tested on: HIV-1 LTR in quiescently infected Jurkat 8.4 cells; assay: HIV-1 LTR-controlled GFP expression, flow cytometry, Jurkat clone 8.4; type: cell-based; details: for LTR-controlled GFP expression, Jurkat 8.4 cells: 72 h, gated live cells
[12] = tested on: NF-kappaB (p65/p50) in Jurkat 8.4 cells; assay: NF-kappaB nuclear translocation, colorimetric p65 assay; type: cell-based; design: dose or concentration left out as unconfirmed; details: auranofin, different incubation times, relative to TNF-alpha 1.5 h
Protocol: Detection of NF-kappaB nuclear translocation. Nuclear extracts from control Jurkat 8.4 cells and cells treated with auranofin at different times of incubation were obtained using a nuclear extraction kit (Chemicon International), following the Manufacturer's instructions. NF-kappaB nuclear translocation was detected using a colorimetric transcription factor assay (Millipore) for the p65 subunit. Results were expressed as a percentage of the signal obtained in cells incubated with the potent NF-kappaB stimulating cytokine TNF-alpha (5 ng/ml) for 1.5 h, at which the peak of nuclear translocation of NF-kappaB is reached.

[13] = tested on: our cell lines; assay: Toxicity of auranofin to the cell lines used; type: cell-based; details: concentrations approx. two orders of magnitude superior to those of the present study, data not shown
Excerpt: Cell viability assay. Cell viability was quantitated using the methyl tetrazolium (MTT) procedure. Absorbance values were generated at a wavelength of 550 nm using 96-well ELISA readers and subtracted of the blank values using cell culture media in the absence of cells. Cell viability in the presence of the test compounds was expressed as a percentage of the cell viability of control untreated cell cultures.

[14] = tested on: Non-infected H9 and U937, HIV-1 infected H9IIIB, ACH-2 and U1 cells; assay: Selective killing, MTT cell viability, infected versus non-infected cells; type: cell-based; details: seven days
Excerpt: Cell viability assay. Cell viability was quantitated using the highly standardised methyl tetrazolium (MTT) procedure (described in detail in: Savarino A, Calosso L, Piragino A, Martini C, Gennero L, Pescarmona G P, Pugliese A. Modulation of surface transferrin receptors in lymphoid cells de novo infected with human immunodeficiency virus type-1. Cell Biochem Funct. 1999 March; 17(1):47-55). Absorbance values were generated at a wavelength of 450 nm using 96-well ELISA readers and subtracted of the blank values using cell culture media in the absence of cells. Cell viability in the presence of the test compounds was expressed as a percentage of the cell viability of control untreated cell cultures. For testing of selective killing, Non-infected H9, and U937, and HIV-1 infected HIIIB, ACH-2, and U1 cells were incubated with the test compounds for seven days, and cell viability was measured as described above.

Chain of Maize HD1-B (Q9ZTP8 entry or part of it): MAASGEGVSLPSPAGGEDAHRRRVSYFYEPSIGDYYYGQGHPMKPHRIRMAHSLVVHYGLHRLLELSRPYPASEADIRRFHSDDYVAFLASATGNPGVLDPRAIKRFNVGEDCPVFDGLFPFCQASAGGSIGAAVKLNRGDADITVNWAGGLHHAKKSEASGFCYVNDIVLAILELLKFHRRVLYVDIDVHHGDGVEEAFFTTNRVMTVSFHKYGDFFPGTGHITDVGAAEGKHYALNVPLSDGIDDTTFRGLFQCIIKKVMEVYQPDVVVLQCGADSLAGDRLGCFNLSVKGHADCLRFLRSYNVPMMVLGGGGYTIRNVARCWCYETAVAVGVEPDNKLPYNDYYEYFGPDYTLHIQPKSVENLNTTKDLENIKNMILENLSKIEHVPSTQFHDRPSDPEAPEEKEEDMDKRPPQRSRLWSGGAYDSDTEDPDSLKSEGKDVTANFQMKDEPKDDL

| Molecule | IC50 [1] [µM] | IC50 [2] [µM] | IC50 [3] [µM] | inhibition at 5 µM [4] [%] | inhibition at 5 µM [5] [%] | HDACs inhibited [6] | other results |
| --- | --- | --- | --- | --- | --- | --- | --- |
| O=C(/C=C/c1ccc(NC(=O)C(Cc2ccccc2)c2ccccc2)cc1)NO (stereo not shown) [MC 1895, 3-[4-(2,3-Diphenylpropionylamino)phenyl]-N-hydroxy-2-propenamide] | 0.133 | 0.074 | 0.083 | 16.1 | 72.5 | Class 1 |  |
| CC(C)C(C(=O)Nc1ccc(C(=O)NO)cn1)c1ccccc1 (stereo not shown) [MC 2195] | 0.011 | 0.008 | 0.069 | 93.1 | 46.7 | Class 1 |  |
| CCC(C(=O)Nc1ccc(/C=C/C(=O)NO)cc1)c1ccccc1 (stereo not shown) [MC 1864] | 0.089 | 0.064 | 0.305 | 60.4 | 55 |  |  |
| O=C(CCCCCCC(=O)Nc1ccccc1)NO [SAHA, suberoylanilide hydroxamic acid] |  |  |  |  |  |  | LTR-controlled GFP expression, Jurkat A1 cells ([7]; 72 h): induction of LTR-controlled expression of green-fluorescent protein (GFP) |
| Nc1ccccc1NC(=O)c1ccc(CNC(=O)OCc2cccnc2)cc1 [MS 275] |  |  |  |  | 65.4 | Class 1 | Concentration range of activity in inducing HIV-1 escape from latency, U1 cells ([8]; not shown): nanomolar range; Concentration range of activity in inducing HIV-1 escape from latency, ACH-2 cells ([9]; day 3, concentration-response 0.001-1 μM): nanomolar range; Combined HIV-1 promoting effect of HDACi with BSO, ACH-2 cells ([9]; percentage-of-synergism graph, three days): synergistic effect |
| CC(C(=O)Nc1ccc(/C=C/C(=O)NO)cc1)c1ccccc1 (stereo not shown) [MC 1857] | 0.072 | 0.08 | 0.291 |  | 79.3 |  |  |
| CCCCS(=N)(=O)CCC(N)C(=O)O (stereo not shown) [BSO, buthionine sulfoximine] |  |  |  |  |  |  | Induction of HIV-1 replication by the agent alone, U1 cells ([8]; data not shown): did not significantly induce HIV-1 replication; Induction of HIV-1 replication by the agent alone, ACH-2 cells ([9]; concentrations up to 500 μM): had no effect; Induction of HIV-1 replication by the agent alone, ACH-2 cells [9]: did not significantly induce HIV-1 replication; GFP expression in combination with HDACi (MS-275), Jurkat A1 cells ([7]; 72 h): recruited HDACi-insensitive cells into the responding cell population; LTR-controlled GFP expression, Jurkat A1 cells ([7]; 72 h): induced LTR activation in a small proportion of cells |
| CCCC(CCC)C(=O)O [VA, valproic acid] |  |  |  |  |  |  | EC50, HIV-1 escape from latency [10]: millimolar range |
| arsenic trioxide |  |  |  |  |  |  | LTR-controlled GFP expression, Jurkat 8.4 cells [11]: dose-dependent shift in fluorescence; LTR-controlled GFP expression, Jurkat A1 cells ([7]; 72 h): increased in response to arsenic trioxide in a concentration-dependent manner |
| gold(1+); 3,4,5-triacetyloxy-6-(acetyloxymethyl)oxane-2-thiolate; triethylphosphanium [auranofin] |  |  |  |  |  |  | Effect on HIV-1 replication (p24), U1 cells ([8]; 0.125-0.5 μM, 24 h and 72 h): increased HIV-1 replication in a time- and dose-dependent manner; Combined HIV-1 activating effect with MC2113, U1 cells ([8]; auranofin 0.25 μM plus MC2113 1 μM, 24 h): synergistic; LTR-controlled GFP expression, Jurkat 8.4 cells [11]: dose-dependent shift in fluorescence; GFP expression in combination with HDACI (MC2113), Jurkat 8.4 cells ([11]; auranofin 0.25 microM plus MC2113 1 microM): recruited the HDACi-unresponsive cells into the responding cell population; NF-kappaB (p65) in nuclear extracts [12]: time-dependent NF-kappaB accumulation within the nuclei; Toxicity to cell lines [13]: toxic to our cell lines; Effect on HIV-1 replication (p24), ACH-2 cells ([9]; 0.125-0.5 μM, 24 h and 72 h): increased HIV-1 replication in a time- and dose-dependent manner; Combined HIV-1 activating effect with BSO, ACH-2 cells ([9]; auranofin plus BSO, percentage-of-synergism surface, three days): synergistic HIV-1 activating effects; Combined HIV-1 activating effect with FeNTA, ACH-2 cells ([9]; percentage-of-synergism surface, three days): synergistic HIV-1 activating effects; LTR-controlled GFP expression, Jurkat A1 cells ([7]; 72 h): induction of LTR-controlled expression of green-fluorescent protein (GFP) |
| O=C([O-])CN(CC(=O)[O-])CC(=O)[O-].[Fe+3] [FeNTA, iron nitriloacetate] |  |  |  |  |  |  | Induction of HIV-1 replication by the agent alone, ACH-2 cells [9]: dose-dependently induced HIV-1 replication |
| CCC(C(=O)Nc1ccc(/C=C/C(=O)NO)cc1)c1ccc2ccccc2c1 (stereo not shown) [MC 2113] | 0.062 | 0.069 | 0.56 | 22.4 | 64.9 | Class 1 |  |
| N.N.[Cl][Pt][Cl] [cisplatin] |  |  |  |  |  |  | Concentration range activating quiescent HIV-1 ([10]; Spandidos et al., 1990): micromolar; Concentration range activating latent HIV-1 ([7]; cell line models for HIV-1 latency): nanomolar range |
| CCC(C(=O)Nc1ccc(/C=C/C(=O)NO)cc1)c1cccc2ccccc12 (stereo not shown) [MC 2111] | 0.058 | 0.042 | 0.62 | 0 | 73.6 | Class 1 |  |
| O=C(/C=C/c1ccc(NC(=O)C(c2ccccc2)c2ccccc2)cc1)NO [MC 1855] | 0.162 | 0.055 | 0.128 | 0 | 78.7 | Class 1 | Selective killing of HIV-1 infected cells versus uninfected counterparts [14]: selective killing of HIV-1-infected cells |
